This test deals with MtACS (Mycobacterium tuberculosis acetyl-CoA synthetase) (Mycobacterium tuberculosis, UniProt P9WQD1). Briefly: biochemical.
MtACS (Mycobacterium tuberculosis acetyl-CoA synthetase), sequence (P9WQD1 2-651): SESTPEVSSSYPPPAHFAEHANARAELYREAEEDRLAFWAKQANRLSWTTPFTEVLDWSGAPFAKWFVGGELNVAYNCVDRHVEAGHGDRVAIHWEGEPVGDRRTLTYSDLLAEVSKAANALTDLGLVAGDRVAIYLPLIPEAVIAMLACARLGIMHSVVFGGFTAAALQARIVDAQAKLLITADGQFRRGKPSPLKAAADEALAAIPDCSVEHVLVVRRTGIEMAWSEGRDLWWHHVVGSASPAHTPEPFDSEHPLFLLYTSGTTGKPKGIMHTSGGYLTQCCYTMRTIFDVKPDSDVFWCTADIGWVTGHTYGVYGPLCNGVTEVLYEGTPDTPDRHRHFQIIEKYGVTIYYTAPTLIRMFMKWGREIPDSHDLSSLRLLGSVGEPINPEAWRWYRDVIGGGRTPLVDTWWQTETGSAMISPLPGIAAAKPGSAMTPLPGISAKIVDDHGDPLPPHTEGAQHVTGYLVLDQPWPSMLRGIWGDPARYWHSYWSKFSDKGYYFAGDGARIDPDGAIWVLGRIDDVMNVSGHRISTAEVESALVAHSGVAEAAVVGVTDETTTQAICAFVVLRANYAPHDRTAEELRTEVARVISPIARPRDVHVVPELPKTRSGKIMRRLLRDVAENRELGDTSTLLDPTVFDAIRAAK

In the case of `Nc1ncnc2c1ncn2[C@@H]1O[C@H](COP(=O)(O)CP(=O)(O)OP(=O)(O)O)[C@@H](O)[C@H]1O` [AMPCPP], the Ki (in general, a measure of affinity in units of concentration, obtained from inhibition or displacement) was determined as 5 ± 0.8 mM.

(Values after paper PMC4066452 (Archives of biochemistry and biophysics, 2014).)
